{
  "source": "patent US7179823B1",
  "about": "“5-membered n-heterocyclic compounds with hypoglycemic and hypolipidemic activity” (Takeda Pharmaceutical Company Limited, priority 1999, dated 2007)",
  "key": {"PPARγ-RXRα heterodimer": {"target": "T1, PPARγ-RXRα heterodimer (Homo sapiens, UniProt P37231)", "T1 construct": "expressed in transfected cells; host or cells: CHO-K1", "T1 sequence (P37231 1-477 isoform P37231-2)": "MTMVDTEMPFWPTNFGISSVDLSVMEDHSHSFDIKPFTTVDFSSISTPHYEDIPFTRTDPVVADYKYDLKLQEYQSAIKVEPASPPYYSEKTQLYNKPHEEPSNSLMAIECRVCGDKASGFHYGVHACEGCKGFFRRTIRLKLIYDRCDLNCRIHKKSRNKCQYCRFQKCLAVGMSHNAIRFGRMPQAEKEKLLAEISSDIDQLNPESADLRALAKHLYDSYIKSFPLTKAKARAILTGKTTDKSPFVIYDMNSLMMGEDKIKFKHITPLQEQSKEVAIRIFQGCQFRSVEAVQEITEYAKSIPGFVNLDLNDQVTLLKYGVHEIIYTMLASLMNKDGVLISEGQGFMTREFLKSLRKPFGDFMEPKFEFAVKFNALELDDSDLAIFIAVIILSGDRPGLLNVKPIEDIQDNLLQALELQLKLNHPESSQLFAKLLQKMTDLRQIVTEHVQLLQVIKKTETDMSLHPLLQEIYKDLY", "T1 sequence (P19793 1-462 partner)": "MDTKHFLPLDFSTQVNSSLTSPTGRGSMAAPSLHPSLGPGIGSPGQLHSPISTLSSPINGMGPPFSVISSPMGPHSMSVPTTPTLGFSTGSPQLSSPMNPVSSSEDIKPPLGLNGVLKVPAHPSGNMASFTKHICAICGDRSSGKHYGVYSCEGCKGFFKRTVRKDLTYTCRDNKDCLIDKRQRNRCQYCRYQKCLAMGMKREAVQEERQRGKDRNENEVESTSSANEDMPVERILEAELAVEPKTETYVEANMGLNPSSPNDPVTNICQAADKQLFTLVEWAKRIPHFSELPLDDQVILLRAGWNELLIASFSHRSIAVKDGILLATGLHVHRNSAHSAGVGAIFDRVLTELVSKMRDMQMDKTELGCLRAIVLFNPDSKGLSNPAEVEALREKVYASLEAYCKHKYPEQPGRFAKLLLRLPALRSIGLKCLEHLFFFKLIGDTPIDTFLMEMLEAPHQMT", "assay": "PPARγ-RXRα heterodimer ligand activity (luciferase reporter, PPARγ:RXRα:4ERPP/CHO-K1 cells)", "assay_type": "cell-based", "conditions": "48 hours, concentration for 50% of the maximum fold induction", "method": "(PPARγ-RXRα Heterodimer Ligand Activity)\nA PPARγ:RXRα:4ERPP/CHO-K1 cells obtained in Reference Example 5 described later were cultured in HAM F12 medium (produced by NISSUI SEIYAKU) containing 10% Fetal bovine serum (produced by Life Technologies, Inc., USA) and then inoculated to a 96-well white plate (produced by Corning Costar Corporation, USA) at the density of 2×10^4 cells/well, and cultured in a CO2 gas incubator at 37° C. overnight.\nAfter washing the 96 well white plate with PBS (Phosphate-buffered saline), 90 μl of HAM F12 medium containing 0.1% fatty acid-free bovine serum albumin (BSA) and 10 μl of test compound were added, which was cultured in a CO2 gas incubator at 37° C. for 48 hours. After removing the medium, 40 μl of PIKKAGENE 7.5 (produced by Wako Pure Chemical Industries, Ltd.) was added. After stirring, the luciferase activity was determined using Lumistar (produced by BMG Labtechnologies GmbH, Germany).\nA fold induction was calculated based on the luciferase activity of each test compound by taking the luciferase activity in the non-treatment group as 1. The values of the test compound concentration and the fold induction were analyzed using PRISM 2.01 (produced by GraphPad Software Inc. USA) to calculate the EC50 values, the effective concentration of a test compound for 50% of the maximum fold induction.\n(Introduction of Human PPARγ- and RXRα-Expressing Plasmid and Reporter Plasmid into CHO-K1 Cell and Establishment of Expressed Cell)\nAfter a CHO-K1 cell cultured in a 750 ml tissue culture flask (produced by Corning Costar Corporation, USA) containing HAM F12 medium (produced by NISSUI SEIYAKU) supplemented with 10% Fetal Bovine Serum (produced by Life Technologies, Inc., USA) was scraped by treating with 0.5 g/L trypsin-0.2 g/L EDTA (ethylenediaminetetraacetic acid) (produced by Life Technologies, Inc., USA), the cell was washed with PBS (phosphate-buffered saline) (produced by Life Technologies, Inc., USA), centrifuged (1000 rpm, 5 minutes), and then suspended in PBS. Subsequently, a DNA was introduced into the cell under the condition shown below using GENE PULSER (produced by Bio-Rad Laboratories, USA).\nNamely, to a cuvette having a 0.4 cm gap, added were 8×10^6 cells and 10 μg of plasmid pVgRXR2-hPPAR γ obtained in Reference Example 3 and 10 μg of reporter plasmid pGL3-4ERPP-TK neo obtained in Reference Example 4, which was subjected to electroporation at the voltage of 0.25 kV under the capacitance of 960 μF. Subsequently, the cell was transferred into a HAM F12 medium containing 10% Fetal Bovine Serum and cultured for 24 hours and then the cell was scraped again and centrifuged, and then suspended in HAM F12 medium containing 10% Fetal Bovine Serum supplemented with 500 μg/ml of GENETICIN (produced by Life Technologies, Inc., USA) and 250 μg/ml of ZEOCIN (produced by Invitrogen, USA) and diluted to the density of 10^4 cells/ml upon inoculation to a 96-well plate (produced by Corning Costar Corporation, USA), which was cultured in a CO2 gas incubator at 37° C., whereby obtaining a GENETICIN- and ZEOCIN-resistant transformant.\nSubsequently, after the transformant cell line thus obtained was cultured in a 24-well plate (produced by Corning Costar Corporation, USA), selected was a cell line in which the luciferase was expressed and induced, i.e., PPARγ:RXRα:4ERPP/CHO-K1 cell by addition of 10 μM pioglitazone hydrochloride."}, "KKA^y mice": {"test_system": "KKA^y mice", "assay": "Hypoglycemic and hypolipidemic actions in mice", "assay_type": "in vivo", "conditions": "Mus musculus, po, 96 h, 0.005% in powdery diet, four days", "from_the_text": "Hypoglycemic and Hypolipidemic Actions in Mice\nTest compounds were mixed in a powdery diet (CE-2, Japan Clea) at the concentration of 0.01% (compounds of Examples 12, 30, 89, 186), 0.005% (compounds of Examples 7, 80, 82, 181, 182, 184, 256, 262, 283), 0.001% (compounds of Examples 9, 104, 110, 155, 156, 160, 167, 169, 172, 174, 176, 189), or 0.0003% (compounds of Examples 38, 40, 44), and freely given to KKA^y mice (9 to 12 weeks old, 5 mice in a group), a model of obese and type 2 diabetes mellitus, for four days. During this period, water was given freely. Blood was sampled from orbital venous plexus, and glucose and triglyceride levels in plasma separated from blood were determined enzymatically using L type Wako Glu2 (Wako Pure Chemical Industries, Ltd.) or L type Wako TG•H (Wako Pure Chemical Industries, Ltd.), respectively.\nIn the Table, the value of each treatment group is represented as percent reduction compared with the non-treatment group."}, "[1]": {"conditions": "percent reduction of plasma glucose compared with the non-treatment group, read-out: Hypoglycemic action (%)"}, "[2]": {"conditions": "percent reduction of plasma triglyceride compared with the non-treatment group, read-out: Hypolipidemic action (%)"}},
  "note": "Where two headings read alike, the source gives them in different places.",
  "data": [
    {"smiles": "Cc1oc(-c2cccs2)nc1COc1ccc(Cn2cc(CCC(=O)O)c(-c3ccccc3)n2)cc1", "note": "[Example 82, 3-[1-[4-[5-methyl-2-(2-thienyl)-4-oxazolylmethoxy]benzyl]-3-phenyl-1H-pyrazol-4-yl]propionic acid]", "values": [
      {"measurement": "EC50", "setting": "PPARγ-RXRα heterodimer", "result": 1.4, "unit": "nM"},
      {"measurement": "inhibition in vivo at 0.005 %", "setting": "KKA^y mice; [1]", "result": 50, "unit": "%"},
      {"measurement": "inhibition in vivo at 0.005 %", "setting": "KKA^y mice; [2]", "result": 58, "unit": "%"},
      {"measurement": "melting point", "result": "159 to 160", "unit": "°C"}
    ]},
    {"smiles": "Cc1oc(-c2ccco2)nc1COc1ccc(Cn2cc(CCC(=O)O)c(-c3ccccc3)n2)cc1", "note": "[Example 80, 3-[1-[4-[2-(2-furyl)-5-methyl-4-oxazolylmethoxy]benzyl]-3-phenyl-1H-pyrazol-4-yl]propionic acid]", "values": [
      {"measurement": "EC50", "setting": "PPARγ-RXRα heterodimer", "result": 2.5, "unit": "nM"},
      {"measurement": "inhibition in vivo at 0.005 %", "setting": "KKA^y mice; [1]", "result": 42, "unit": "%"},
      {"measurement": "inhibition in vivo at 0.005 %", "setting": "KKA^y mice; [2]", "result": 22, "unit": "%"},
      {"measurement": "melting point", "result": "152 to 153", "unit": "°C"}
    ]}
  ]
}
